We go through 6 substances from publication PMC6979384, “Characterization of the plant homeodomain (PHD) reader family for their histone tail interactions” (Epigenetics & Chromatin, 2020).

Where no end group is shown, it is not given here.

The subject of experiment [1] is 123 annotated human PHD-containing domains. In words: PHD finger domain microarray probed with biotinylated peptides (all domains). The experiment is classed as binding. Conditions: GST-PHD readers in duplicate on nitrocellulose slides, biotinylated peptide pre-labeled with streptavidin-Cy3. The text has this:
To define the histone binding preferences of the PHD finger proteome, we expressed and purified 123 annotated human PHD-containing domains as GST-tagged recombinant fusions from E. coli. The recombinant proteins consisted of either PHD fingers in isolation, or as tandem domains if a given PHD finger was located adjacent to another reader domain (e.g., one or more PHD fingers, Tudor, chromo and/or bromodomains) (Additional file 1: Table S1). These GST fusions were printed in duplicate on nitrocellulose-coated microarray slides and probed with biotinylated peptides that represented the N-termini of H3, H4, H2A or H2B (Fig. 1a and Additional file 2: Figure S1). As the majority of PHD readers thus far characterized are H3K4me0/3 readers, we included additional peptides (H3K4 as either mono-, di-, or trimethylated) to further determine any H3K4 methyl preference (Additional file 2: Figure S2 and Fig. 1b). As a control, we also probed these microarrays with an α-Tubulin peptide (a.a. 30–50) that would not be predicted to interact with PHD fingers (Additional file 2: Figure S1). […] We also cannot exclude the possibility that some PHD fingers might not be functionally active on the microarrays (perhaps due to misfolding or the lack of an important adjacent region).
The protein domain microarray was designed to include 123 GST-tagged PHD-domain containing recombinant proteins. Protein domain microarray development and probing was as previously. Briefly, recombinant proteins were synthesized and cloned into pGEX-4T-1 vector by Biomatik Corporation. These GST-PHD readers were subsequently expressed, purified, and spotted in duplicate onto nitrocellulose-coated glass slides (Oncyte Avid slides, Grace Bio-Labs) using a pin arrayer (Aushon 2470, Aushon). For probing, microarray slides were blocked with 3% milk, 3% bovine serum albumin, 0.1% Tween 20 in PBS. Biotinylated peptides were pre-labeled with streptavidin-Cy3 fluorophore (GE Healthcare) and incubated with the blocked array slides. Slides were then washed with PBST and allowed to air dry. Fluorescent interactions were visualized using a GenePix 4200A Microarray Scanner (Molecular Devices).

The test system of another experiment is AIRE (PP). The experiment can be described thus: Histone peptide microarray. Conditions: AIRE (PP), GST-tagged; arrays performed twice, n of 4. The class given is binding, human. The essentials: (§1)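 Mean ± SD of 4 replicate array intensities; GST-PHD finger at 0.5 μM against 293 PTM-bearing histone peptides.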
The next experiment deals with BAZ2B. The experiment can be described thus: Histone peptide microarray. The settings on record: BAZ2B, GST-tagged; arrays performed twice, n of 4. The class given is binding, human. The method, boiled down: as §1
The next experiment concerns BPTF (PB). The experiment can be described thus: Histone peptide microarray. Conditions: BPTF (PB), GST-tagged; arrays performed twice, n of 4. The class given is binding, human. The method, boiled down:
as §1

A further experiment relates to CHD4 (PPCC). In words: Histone peptide microarray. The experiment is classed as binding, human. The settings on record: CHD4 (PPCC), GST-tagged; arrays performed twice, n of 4. The essentials: as §1
In the next experiment the test system is CHD5 (PCC). In words: Histone peptide microarray. The class given is binding, human. The settings on record: CHD5 (PCC), GST-tagged; arrays performed twice, n of 4. The method, boiled down:
as §1

For the next experiment, the system named is CHD5 (PPCC). The experiment can be described thus: Histone peptide microarray. The experiment is classed as binding, human. The settings on record: CHD5 (PPCC), GST-tagged; arrays performed twice, n of 4. The essentials: as §1
A further experiment has as its system DIDO1. In words: Histone peptide microarray. The class given is binding, human. Conditions: DIDO1, GST-tagged; arrays performed twice, n of 4. The method, boiled down:
as §1

Another experiment deals with DPF2 (PPC2W2). In words: Histone peptide microarray. The experiment is classed as binding, human. The settings on record: DPF2 (PPC2W2), GST-tagged; arrays performed twice, n of 4. The method, boiled down: as §1
The test system of a further experiment is ING1. The experiment can be described thus: Histone peptide microarray. The experiment is classed as binding, human. The settings on record: ING1, GST-tagged; arrays performed twice, n of 4. The method, boiled down: as §1
The test system of the next experiment is ING2. The experiment can be described thus: Histone peptide microarray. The settings on record: ING2, GST-tagged; arrays performed twice, n of 4. The class given is binding, human. The essentials:
as §1

For a further experiment, the system named is ING3. In words: Histone peptide microarray. The experiment is classed as binding, human. The settings on record: ING3, GST-tagged; arrays performed twice, n of 4. The method, boiled down: as §1
The next experiment concerns ING4. The experiment can be described thus: Histone peptide microarray. The experiment is classed as binding, human. Conditions: ING4, GST-tagged; arrays performed twice, n of 4. The method, boiled down: as §1
A further experiment has as its system ING5. In words: Histone peptide microarray. The class given is binding, human. Conditions: ING5, GST-tagged; arrays performed twice, n of 4. The method, boiled down: as §1
The next experiment has as its system KDM4C (TTP). The experiment can be described thus: Histone peptide microarray. The class given is binding, human. The settings on record: KDM4C (TTP), GST-tagged; arrays performed twice, n of 4. The method, boiled down:
as §1

The next experiment relates to KDM5A (1). The experiment can be described thus: Histone peptide microarray. The class given is binding, human. The settings on record: KDM5A (1), GST-tagged; arrays performed twice, n of 4. The essentials:
as §1

Another experiment relates to KDM5A (3). In words: Histone peptide microarray. The experiment is classed as binding, human. Conditions: KDM5A (3), GST-tagged; arrays performed twice, n of 4. The essentials: as §1
Another experiment deals with KDM5B (1). The experiment can be described thus: Histone peptide microarray. The experiment is classed as binding, human. The settings on record: KDM5B (1), GST-tagged; arrays performed twice, n of 4. The method, boiled down:
as §1

The subject of a further experiment is KDM5B (3). The experiment can be described thus: Histone peptide microarray. The experiment is classed as binding, human. Conditions: KDM5B (3), GST-tagged; arrays performed twice, n of 4. The essentials: as §1
Another experiment deals with KDM7A. The experiment can be described thus: Histone peptide microarray. The settings on record: KDM7A, GST-tagged; arrays performed twice, n of 4. The class given is binding, human. The essentials:
as §1

For another experiment, the system named is MLL5. The experiment can be described thus: Histone peptide microarray. The class given is binding, human. The settings on record: MLL5, GST-tagged; arrays performed twice, n of 4. The method, boiled down: as §1
The next experiment deals with MORC3 (CW). In words: Histone peptide microarray. The experiment is classed as binding, human. Conditions: MORC3 (CW), GST-tagged; arrays performed twice, n of 4. The essentials:
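A peptide microarray holding 293 synthetic histone peptides with individual or combinatorial modifications was probed with each GST-PHD protein at 0.5 μM. Values represent mean intensity (±SD) from four replicates.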

For the next experiment, the system named is PHF13. The experiment can be described thus: Histone peptide microarray. The experiment is classed as binding, human. Conditions: PHF13, GST-tagged; arrays performed twice, n of 4. The method, boiled down:
as §1

The test system of another experiment is PHF21A. The experiment can be described thus: Histone peptide microarray. The experiment is classed as binding, human. The settings on record: PHF21A, GST-tagged; arrays performed twice, n of 4. The essentials:
as §1

The subject of another experiment is PHF23. In words: Histone peptide microarray. The class given is binding, human. The settings on record: PHF23, GST-tagged; arrays performed twice, n of 4. The method, boiled down:
as §1

The test system of the next experiment is PHF2. The experiment can be described thus: Histone peptide microarray. The class given is binding, human. Conditions: PHF2, GST-tagged; arrays performed twice, n of 4. The method, boiled down: as §1
A further experiment deals with PHF8. In words: Histone peptide microarray. The experiment is classed as binding, human. The settings on record: PHF8, GST-tagged; arrays performed twice, n of 4. The essentials:
as §1

For another experiment, the system named is PHRF1 (RP). The experiment can be described thus: Histone peptide microarray. The experiment is classed as binding, human. The settings on record: PHRF1 (RP), GST-tagged; arrays performed twice, n of 4. The essentials:
as §1

The test system of another experiment is RAG2. The experiment can be described thus: Histone peptide microarray. The class given is binding, human. The settings on record: RAG2, GST-tagged; arrays performed twice, n of 4. The essentials:
as §1

The next experiment deals with SP140L. The experiment can be described thus: Histone peptide microarray. The class given is binding, human. Conditions: SP140L, GST-tagged; arrays performed twice, n of 4. The method, boiled down: as §1
The test system of the next experiment is TAF3. In words: Histone peptide microarray. Conditions: TAF3, GST-tagged; arrays performed twice, n of 4. The experiment is classed as binding, human. The method, boiled down:
as §1

A further experiment deals with TRIM66 (PB). In words: Histone peptide microarray. The class given is binding, human. The settings on record: TRIM66 (PB), GST-tagged; arrays performed twice, n of 4. The essentials:
as §1

“Ac-H2A (1-17): histone peptide (Ac-SGRGKQGGKARAKAKTR; UniProt P0C0S8 2-18, looked up, fragment)”: the “binding on domain microarray” value in experiment [1] is “No detectable binding observed”.
With “Ac-H4 (1-16): histone peptide (SGRGKGGKGLGKGGAK; N-terminal acetylation; UniProt P62805 2-17, looked up, fragment)”, the “binding on domain microarray” value in experiment [1] was “No detectable binding observed”.
Still for that read-out and setting: with “H2B: biotinylated N-terminal H2B peptide (Figure S1: H2B (1-24)) [Peptide H2B]” the entry was “little to no positive interactions”.
In the case of “H4: biotinylated N-terminal H4 peptide (Figure S1: Ac-H4 (1-16)) (SGRGKGGKGLGKGGAK; biotin, N-terminal acetyl; UniProt P62805 2-17, looked up, fragment) [Peptide H4]”, the “binding on domain microarray” value in experiment [1] is “little to no positive interactions”.
Consider “Myc-Tag: 1-10 (ILKKATAYIL; Myc epitope tag; UniProt P01106 410-419, looked up, fragment)”, for which the “Array Heatmap value (peptide array binding signal)” value (shortened to “Array Heatmap value”) with AIRE (PP) is 0.3997; in the experiment with BAZ2B, 0.4426; in the experiment on BPTF (PB), 0.3544; with CHD4 (PPCC), 0.5842; in the experiment with CHD5 (PCC), 0.7878; in the experiment with CHD5 (PPCC), 0.538. The “Array Heatmap value” value in the experiment with DIDO1 turned out to be 0.7478; in the experiment with DPF2 (PPC2W2), 0.6957; in the experiment with ING1 it was 0.569; in the experiment on ING2, 0.5931; in the experiment with ING3, 0.5082; in the experiment on ING4 it was 0.4476. The “Array Heatmap value” value with ING5 amounted to 0.3459; in the experiment with KDM4C (TTP), 0.4677; in the experiment on KDM5A (1), 0.4279; in the experiment with KDM5A (3), 0.493; with KDM5B (1) it was 0.6488; in the experiment with KDM5B (3) it was 0.4322. For the same substance, the “Array Heatmap value” value in the experiment on KDM7A is given as 0.3296; with MLL5, 0.5446; in the experiment on MORC3 (CW) it was 0.3567; with PHF13, 0.6119; in the experiment on PHF21A, 0.4264; in the experiment on PHF23, 0.5279. In addition, the “Array Heatmap value” value stood at 0.5897 in the experiment with PHF2; 0.3567 in the experiment on PHF8; 0.4883 in the experiment on PHRF1 (RP); 0.2496 with RAG2; 0.3664 in the experiment on SP140L; 0.2522 in the experiment on TAF3. Besides, the “Array Heatmap value” value in the experiment with TRIM66 (PB) was determined as 0.6061.
Turning to “α-Tubulin (30-50): α-Tubulin peptide (a.a. 30–50), control (IQPDGQMPSDKTIGGGDDSFN; also: biotin (end not given here))”, the “binding on domain microarray” value is on record as “No detectable binding observed” in experiment [1] and “little to no positive interactions” in experiment [1] (listed as tubulin).
